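In this assay, cells in 96-well plates receive the compound at five concentrations for 48 hours. Endpoints are linearly interpolated between the surrounding concentrations. Abbreviation: GI50, concentration required for 50% inhibition of growth. TGI denotes the concentration required for complete inhibition of growth.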
Legend:
Assay in all cases: growth of human tumour cells (NCI), 48 h
BT-549 breast = tested on: BT-549 breast
SK-MEL-5 melanoma = tested on: SK-MEL-5 melanoma
SF-268 CNS = tested on: SF-268 CNS
SNB-19 CNS = tested on: SNB-19 CNS
SF-295 CNS = tested on: SF-295 CNS
CAKI-1 renal = tested on: CAKI-1 renal
HCT-15 colon = tested on: HCT-15 colon
NCI-H522 lung = tested on: NCI-H522 lung
MALME-3M melanoma = tested on: MALME-3M melanoma
HL-60(TB) leukemia = tested on: HL-60(TB) leukemia
SK-OV-3 ovarian = tested on: SK-OV-3 ovarian
SK-MEL-2 melanoma = tested on: SK-MEL-2 melanoma
RPMI-8226 leukemia = tested on: RPMI-8226 leukemia
ACHN renal = tested on: ACHN renal
UO-31 renal = tested on: UO-31 renal
HOP-92 NSCLC = tested on: HOP-92 NSCLC
NCI-H23 lung = tested on: NCI-H23 lung
MCF7 breast = tested on: MCF7 breast
K-562 leukemia = tested on: K-562 leukemia
SNB-75 CNS = tested on: SNB-75 CNS
NCI-H460 lung = tested on: NCI-H460 lung
HCT-116 colon = tested on: HCT-116 colon
DU-145 prostate = tested on: DU-145 prostate
M14 melanoma = tested on: M14 melanoma
CCRF-CEM leukemia = tested on: CCRF-CEM leukemia
IGROV1 ovarian = tested on: IGROV1 ovarian
SN12C renal = tested on: SN12C renal
A498 renal = tested on: A498 renal
MDA-MB-435 = tested on: MDA-MB-435
TK-10 renal = tested on: TK-10 renal
NCI/ADR-RES ovarian = tested on: NCI/ADR-RES ovarian
EKVX NSCLC = tested on: EKVX NSCLC
UACC-62 melanoma = tested on: UACC-62 melanoma
U251 CNS = tested on: U251 CNS
SR leukemia = tested on: SR leukemia
PC-3 prostate = tested on: PC-3 prostate
OVCAR-4 ovarian = tested on: OVCAR-4 ovarian
HCC-2998 colon = tested on: HCC-2998 colon
HT29 colon = tested on: HT29 colon
HOP-62 NSCLC = tested on: HOP-62 NSCLC
A549 NSCLC = tested on: A549 NSCLC
T-47D breast = tested on: T-47D breast
KM12 colon = tested on: KM12 colon
NCI-H226 lung = tested on: NCI-H226 lung
SF-539 CNS = tested on: SF-539 CNS
HS 578T breast = tested on: HS 578T breast
MDA-MB-231 breast = tested on: MDA-MB-231 breast
COLO 205 colon = tested on: COLO 205 colon
MOLT-4 leukemia = tested on: MOLT-4 leukemia
SK-MEL-28 melanoma = tested on: SK-MEL-28 melanoma
SW-620 colon = tested on: SW-620 colon
LOX IMVI melanoma = tested on: LOX IMVI melanoma
OVCAR-8 ovarian = tested on: OVCAR-8 ovarian
OVCAR-5 ovarian = tested on: OVCAR-5 ovarian
UACC-257 melanoma = tested on: UACC-257 melanoma
RXF 393 renal = tested on: RXF 393 renal
OVCAR-3 ovarian = tested on: OVCAR-3 ovarian
786-0 renal = tested on: 786-0 renal

Structure (SMILES): COc1ccc(-c2nn3ncccc3c2-c2ccnc(Nc3cccc(C(F)(F)F)c3)n2)cc1
- GI50 (BT-549 breast): 12.4 µM
- TGI (BT-549 breast): > 25 µM
- GI50 (SK-MEL-5 melanoma): 5.27 µM
- TGI (SK-MEL-5 melanoma): 14.5 µM
- GI50 (SF-268 CNS): 9.86 µM
- TGI (SF-268 CNS): > 25 µM
- GI50 (SNB-19 CNS): 12.5 µM
- TGI (SNB-19 CNS): > 25 µM
- GI50 (SF-295 CNS): 7.6 µM
- TGI (SF-295 CNS): > 25 µM
- GI50 (CAKI-1 renal): 7 µM
- TGI (CAKI-1 renal): > 25 µM
- GI50 (HCT-15 colon): 7.97 µM
- TGI (HCT-15 colon): > 25 µM
- GI50 (NCI-H522 lung): 6.39 µM
- TGI (NCI-H522 lung): > 21.7 µM
- GI50 (MALME-3M melanoma): 10.2 µM
- TGI (MALME-3M melanoma): > 25 µM
- GI50 (HL-60(TB) leukemia): 8.74 µM
- TGI (HL-60(TB) leukemia): > 25 µM
- GI50 (SK-OV-3 ovarian): 7.76 µM
- TGI (SK-OV-3 ovarian): > 25 µM
- GI50 (SK-MEL-2 melanoma): 8.11 µM
- TGI (SK-MEL-2 melanoma): 21.3 µM
- GI50 (RPMI-8226 leukemia): 7.67 µM
- TGI (RPMI-8226 leukemia): > 25 µM
- GI50 (ACHN renal): 6.7 µM
- TGI (ACHN renal): > 25 µM
- GI50 (UO-31 renal): 4.83 µM
- TGI (UO-31 renal): > 22.9 µM
- GI50 (HOP-92 NSCLC): 3.03 µM
- TGI (HOP-92 NSCLC): 16.1 µM
- GI50 (NCI-H23 lung): 7.99 µM
- TGI (NCI-H23 lung): > 25 µM
- GI50 (MCF7 breast): 7.42 µM
- TGI (MCF7 breast): > 25 µM
- GI50 (K-562 leukemia): 8.04 µM
- TGI (K-562 leukemia): > 25 µM
- GI50 (SNB-75 CNS): > 16.3 µM
- TGI (SNB-75 CNS): > 25 µM
- GI50 (NCI-H460 lung): 7.62 µM
- TGI (NCI-H460 lung): > 25 µM
- GI50 (HCT-116 colon): 7.99 µM
- TGI (HCT-116 colon): > 25 µM
- GI50 (DU-145 prostate): 12.1 µM
- TGI (DU-145 prostate): > 25 µM
- GI50 (M14 melanoma): 9.01 µM
- TGI (M14 melanoma): > 25 µM
- GI50 (CCRF-CEM leukemia): 6.73 µM
- TGI (CCRF-CEM leukemia): > 25 µM
- GI50 (IGROV1 ovarian): 4.39 µM
- TGI (IGROV1 ovarian): > 20.2 µM
- GI50 (SN12C renal): 8.03 µM
- TGI (SN12C renal): > 25 µM
- GI50 (A498 renal): 4.41 µM
- TGI (A498 renal): > 20.3 µM
- GI50 (MDA-MB-435): 10.1 µM
- TGI (MDA-MB-435): > 25 µM
- GI50 (TK-10 renal): 8.49 µM
- TGI (TK-10 renal): > 22.5 µM
- GI50 (NCI/ADR-RES ovarian): 6.16 µM
- TGI (NCI/ADR-RES ovarian): > 25 µM
- GI50 (EKVX NSCLC): 6.69 µM
- TGI (EKVX NSCLC): > 25 µM
- GI50 (UACC-62 melanoma): 7.86 µM
- TGI (UACC-62 melanoma): > 25 µM
- GI50 (U251 CNS): 11.6 µM
- TGI (U251 CNS): > 25 µM
- GI50 (SR leukemia): 13.5 µM
- TGI (SR leukemia): > 25 µM
- GI50 (PC-3 prostate): 7.25 µM
- TGI (PC-3 prostate): > 25 µM
- GI50 (OVCAR-4 ovarian): 8.54 µM
- TGI (OVCAR-4 ovarian): > 25 µM
- GI50 (HCC-2998 colon): 5.33 µM
- TGI (HCC-2998 colon): 18.6 µM
- GI50 (HT29 colon): 7.56 µM
- TGI (HT29 colon): > 25 µM
- GI50 (HOP-62 NSCLC): 16.8 µM
- TGI (HOP-62 NSCLC): > 25 µM
- GI50 (A549 NSCLC): 9.38 µM
- TGI (A549 NSCLC): > 25 µM
- GI50 (T-47D breast): 6.53 µM
- TGI (T-47D breast): > 25 µM
- GI50 (KM12 colon): 9.33 µM
- TGI (KM12 colon): > 25 µM
- GI50 (NCI-H226 lung): 9.16 µM
- TGI (NCI-H226 lung): > 25 µM
- GI50 (SF-539 CNS): 13.8 µM
- TGI (SF-539 CNS): > 25 µM
- GI50 (HS 578T breast): 8.29 µM
- TGI (HS 578T breast): > 25 µM
- GI50 (MDA-MB-231 breast): 8.12 µM
- TGI (MDA-MB-231 breast): > 25 µM
- GI50 (COLO 205 colon): 17 µM
- TGI (COLO 205 colon): > 25 µM
- GI50 (MOLT-4 leukemia): 8.8 µM
- TGI (MOLT-4 leukemia): > 25 µM
- GI50 (SK-MEL-28 melanoma): 16.7 µM
- TGI (SK-MEL-28 melanoma): > 25 µM
- GI50 (SW-620 colon): 10.8 µM
- TGI (SW-620 colon): > 25 µM
- GI50 (LOX IMVI melanoma): 6.53 µM
- TGI (LOX IMVI melanoma): > 25 µM
- GI50 (OVCAR-8 ovarian): 8.74 µM
- TGI (OVCAR-8 ovarian): > 25 µM
- GI50 (OVCAR-5 ovarian): 6.7 µM
- TGI (OVCAR-5 ovarian): > 25 µM
- GI50 (UACC-257 melanoma): 9.34 µM
- TGI (UACC-257 melanoma): > 25 µM
- GI50 (RXF 393 renal): 5.76 µM
- TGI (RXF 393 renal): 24.5 µM
- GI50 (OVCAR-3 ovarian): 8.36 µM
- TGI (OVCAR-3 ovarian): > 25 µM
- GI50 (786-0 renal): 9.98 µM
- TGI (786-0 renal): > 25 µM
